Results reported in patent US9648872B2, “Water dispersible granule composition” (priority 2014, dated 2017).
In brackets after ≈: the same amount, converted by molar mass.

Legend:
[1] = cited from earlier work
[2] = Solubility of active ingredient; format: physicochemical
From the text: Formulations of water dispersible granules comprising microcapsules encapsulating active ingredients with higher water solubilities: • a. […] When attempting to prepare water dispersible granules comprising microcapsules of Thiamethoxam as per an embodiment of this invention, it was observed that Thiamethoxam was not soluble in the solvent C-9. It is observed that thiamethoxam decomposed immediately beyond its melting point. On attempting to add methylene diphenyl diisocyanate (MDI) in molten Thiamethoxam, it polymerized immediately due to high temperature. Thus Thiamethoxam could not be microencapsulated and it was not possible to prepare its water dispersible granular formulation. • b. […] A water dispersible granular composition comprising microcapsules of 25% Propoxur within a polyurea shell wall with Gohensol GL-03 was made, according to an embodiment of the invention, including maltodextrin as a water soluble suspension adjuvant in the filler base, along with clay, sodium lignosulfonate and alkyl naphthalene sulfonate (Supragil WP). The suspensibility observed was 85%. A water dispersible granule composition comprising microcapsules of 25% Propoxur was prepared with the microcapsules having a polyurea shell wall and polyvinyl alcohol Gohensol GL-03. […]

| SMILES | solubility in water [1] [µg/mL] | solubility in the solvent C-9 [2] |
| --- | --- | --- |
| CNC(=O)Oc1ccccc1OC(C)C [Propoxur] | 1800 (≈ 8.6 mM) |  |
| CN1COCN(Cc2cnc(Cl)s2)/C1=N\[N+](=O)[O-] [Thiamethoxam] |  | not soluble |
